Values quoted from earlier work, collected in patent publication US20230088267A1, “Dual chamber electronic nicotine delivery system with puff duration control and timed lockout and just-in-time adaptive intervention to treat nicotine dependence in cigarette smokers” (Virginia Commonwealth University, priority 2021, published 2023).

For `CN1CCC[C@H]1c1cccnc1` [nicotine, L-nicotine], the “pka of the second nitrogen atom, located in the aromatic pyridine moiety” value (pyridine nitrogen, protonated under acidic conditions) is listed as 3.10 and the “pka of the nitrogen atom in the pyrrolidine moiety” value (pyrrolidine nitrogen, basic) is listed as 8.01.
